Results from US4050989A, “Process of preparing desacyl-pepsidine with bacillus pumilus” (Eisai Co., Ltd., priority 1974, dated 1977).

Tests used:
pepsin = pepsin (Sus scrofa, UniProt P00791); experiment: Pepsin-inhibitory activity (method of Murao and Satoi); type: biochemical
Protocol: viii. Pepsin-inhibitory activity: Pepsin-inhibitory activity of DA-pepsidine was determined using the method reported by S. Murao and S. Satoi in Agr. Biol. Chem. Japan 34 (8) 1265 - 7 (1970). […] While, that of pepsidine C is 0.86 μg.

Solubility in solvents = type: physicochemical

Chain of pepsin (P00791 60-385): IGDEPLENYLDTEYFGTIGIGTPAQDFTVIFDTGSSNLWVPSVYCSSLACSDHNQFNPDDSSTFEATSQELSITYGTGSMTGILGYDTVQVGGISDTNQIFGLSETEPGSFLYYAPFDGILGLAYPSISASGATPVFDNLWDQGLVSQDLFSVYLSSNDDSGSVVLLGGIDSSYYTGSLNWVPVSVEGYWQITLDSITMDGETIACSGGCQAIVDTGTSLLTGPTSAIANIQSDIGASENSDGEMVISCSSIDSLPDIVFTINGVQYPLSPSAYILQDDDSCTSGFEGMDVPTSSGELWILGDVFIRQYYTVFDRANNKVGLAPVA

For CC(=O)N[C@H](C(=O)N[C@H](C(=O)NC(CC(C)C)C(O)CC(=O)N[C@@H](C)C(=O)NC(CC(C)C)C(O)CC(=O)O)C(C)C)C(C)C (some centres unmarked) [pepsidine C, reference compound], the “amount which gives 50% inhibition against 100 μg of pepsin” value (pepsin) was 0.86 µg.

For CC(C)CC(NC(=O)[C@H](C)NC(=O)CC(O)C(CC(C)C)NC(=O)[C@@H](NC(=O)[C@@H](N)C(C)C)C(C)C)C(O)CC(=O)O (some centres unmarked) [DA-pepsidine, valyl-valyl-4-amino-3-hydroxy-6-methyl-heptanoyl alanyl-4-amino-3-hydroxy-6-methyl-heptanoic acid], the Solubility (Solubility in solvents; in acetic acid and methanol) was “Easily soluble”, the Solubility (Solubility in solvents; in acetone and ethylether) was “slightly soluble” and the Solubility (Solubility in solvents; in ethanol, n-butanol and pyridine) was “soluble”. The “amount which gives 50% inhibition against 100 μg of pepsin” value (pepsin) was 0.82 µg.
